Biological target: T1, 5-hydroxytryptamine receptor 2C (Homo sapiens, UniProt P28335)
T1 sequence (P28335 whole entry): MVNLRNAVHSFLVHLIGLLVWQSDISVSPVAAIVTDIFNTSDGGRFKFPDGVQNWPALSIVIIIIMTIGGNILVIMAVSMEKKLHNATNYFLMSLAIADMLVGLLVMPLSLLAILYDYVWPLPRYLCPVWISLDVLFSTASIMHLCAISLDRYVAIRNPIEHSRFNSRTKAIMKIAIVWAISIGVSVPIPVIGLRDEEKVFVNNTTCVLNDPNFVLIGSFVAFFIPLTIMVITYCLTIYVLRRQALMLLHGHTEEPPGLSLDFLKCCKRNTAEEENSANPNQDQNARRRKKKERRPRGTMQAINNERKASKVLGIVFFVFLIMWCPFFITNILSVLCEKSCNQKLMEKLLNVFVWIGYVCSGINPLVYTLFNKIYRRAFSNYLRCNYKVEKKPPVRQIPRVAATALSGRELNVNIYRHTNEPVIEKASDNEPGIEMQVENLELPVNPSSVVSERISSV
Assay: biochemical
Assay type: cell-based, CHO-K1
Description: Displacement of [3H]mesulergine from human recombinant 5-HT2C receptor expressed in CHO-K1 cells

Row | IC50 [nM] | Compound
1 | 297 | CCCc1nc(C(=O)NCCCN2CCN(c3cccc(Cl)c3Cl)CC2)c(C)n1-c1ccc2c(c1)OCCO2
2 | 610 | Cc1cccc(N2CCN(CC(O)CNC(=O)c3nc(C)n(-c4ccc5c(c4)OCCO5)c3C)CC2)c1C (stereo not given)
3 | 383 | CCCc1nc(C(=O)NCCCN2CCN(c3cccc(Cl)c3Cl)CC2)c(C)n1-c1ccccc1OC
4 | 238 | CCCc1nc(C(=O)NCCCN2CCN(c3cccc(C)c3C)CC2)cn1-c1ccc(F)cc1
5 | 61 | CCCc1nc(C(=O)NCCCN2CCN(c3cccc(Cl)c3C)CC2)c(C)n1-c1ccc2c(c1)OCCO2
6 | 189 | CCCc1nc(C(=O)NCCCN2CCN(c3cccc(Cl)c3Cl)CC2)c(C)n1-c1ccccc1F
7 | 663 | Cc1c(Cl)cccc1N1CCN(CC(O)CNC(=O)c2nc(C)n(-c3ccc4c(c3)OCCO4)c2C)CC1 (stereo not given)
8 | 286 | CCCc1nc(C(=O)NCCCN2CCN(c3cccc(C)c3C)CC2)c(C)n1-c1ccccc1
9 | 106 | Cc1c(Cl)cccc1N1CCN(CCCNC(=O)c2nc(C)n(-c3ccc4c(c3)OCCO4)c2C)CC1
10 | 235 | CCCc1nc(C(=O)NCCCN2CCN(c3cccc(C)c3C)CC2)c(C)n1-c1ccccc1Cl
11 | 68 | Cc1cccc(N2CCN(CCCNC(=O)c3nc(-c4ccccc4)n(-c4ccc5c(c4)OCCO5)c3C)CC2)c1C
12 | 229 | CCCc1nc(C(=O)NCCCN2CCN(c3cccc(Cl)c3C)CC2)c(C)n1-c1ccc(F)cc1
13 | 68 | CCCc1nc(C(=O)NCCCN2CCN(c3cccc(C)c3C)CC2)c(C)n1-c1ccc(F)cc1
14 | 473 | CCCc1nc(C(=O)NCCCN2CCN(c3cccc(Cl)c3C)CC2)c(C)n1-c1ccccc1OC

The remaining lines, values behind:

Row | Compound | IC50 [nM]
15 | Cc1cccc(N2CCN(CCCNC(=O)c3cn(-c4ccccc4)c(-c4ccccc4)n3)CC2)c1C | 116
16 | COc1ccc(-n2c(-c3ccccc3)nc(C(=O)NCC(O)CN3CCN(c4cccc(Cl)c4C)CC3)c2C)cc1 (stereo not given) | 526
17 | Cc1nc(C(=O)NCCCN2CCN(c3cccc(Cl)c3Cl)CC2)c(C)n1-c1ccccc1C(F)(F)F | 155
18 | COc1ccc(-n2c(-c3ccccc3)nc(C(=O)NCCCN3CCN(c4cccc(C)c4C)CC3)c2C)cc1 | 96
19 | Cc1c(Cl)cccc1N1CCN(CC(O)CNC(=O)c2nc(C)n(C3CCCC3)c2C)CC1 (stereo not given) | 166
20 | Cc1nc(C(=O)NCCCN2CCN(c3cccc(Cl)c3Cl)CC2)c(C)n1C1CCCC1 | 139
21 | CCCn1c(C)nc(C(=O)NCC(O)CN2CCN(c3cccc(C)c3C)CC2)c1C (stereo not given) | > 10000
22 | COc1ccc(-n2c(-c3ccccc3)nc(C(=O)NCCCN3CCN(c4cccc(Cl)c4C)CC3)c2C)cc1 | 77
23 | Cc1c(Cl)cccc1N1CCN(CCCNC(=O)c2nc(C)n(CC(C)C)c2C)CC1 | 2220
24 | CCCc1nc(C(=O)NCCCN2CCN(c3cccc(Cl)c3C)CC2)c(C)n1-c1ccc(OC)cc1 | 204
25 | Cc1cccc(N2CCN(CCCNC(=O)c3nc(-c4ccccc4)n(-c4ccc(F)cc4)c3C)CC2)c1C | 64.1
26 | Cc1c(Cl)cccc1N1CCN(CC(O)CNC(=O)c2nc(C)n(-c3cccc(Cl)c3)c2C)CC1 (stereo not given) | 556
27 | COc1ccc(-n2c(C)nc(C(=O)NCC(O)CN3CCN(c4cccc(C)c4C)CC3)c2C)cc1 (stereo not given) | 546
28 | Cc1nc(C(=O)NCC(O)CN2CCN(c3cccc(Cl)c3Cl)CC2)c(C)n1-c1ccccc1F (stereo not given) | 459
29 | COc1ccc(-n2c(C)nc(C(=O)NCC(O)CN3CCN(c4cccc(Cl)c4C)CC3)c2C)cc1 (stereo not given) | 323
30 | CCCn1c(C)nc(C(=O)NCCCN2CCN(c3cccc(Cl)c3Cl)CC2)c1C | 198
31 | COc1ccc(-n2c(C)nc(C(=O)NCCCN3CCN(c4cccc(C)c4C)CC3)c2C)cc1 | 191
32 | Cc1c(Cl)cccc1N1CCN(CCCNC(=O)c2nc(-c3ccccc3)n(-c3ccc(F)cc3)c2C)CC1 | 2240
33 | CCCc1nc(C(=O)NCC(O)CN2CCN(c3cccc(Cl)c3Cl)CC2)c(C)n1-c1ccc(F)cc1 (stereo not given) | 1510
34 | Cc1c(Cl)cccc1N1CCN(CC(O)CNC(=O)c2nc(-c3ccccc3)n(-c3ccccc3)c2C)CC1 (stereo not given) | 739
35 | COc1ccc(-n2c(-c3ccccc3)nc(C(=O)NCC(O)CN3CCN(c4cccc(C)c4C)CC3)c2C)cc1 (stereo not given) | 609
